Assay results as given in a melting point compilation (Tetko et al.; mined from patent text by program, amines drawn as free bases though some values may be those of a salt).

SMILES | melting point [°C]
CCN(C)c1nc2cc(NC(=O)c3c(C(=O)O)cnn3C)ccn2n1 | > 250
CCNC(=S)NS(=O)(=O)c1cc(CCNC(=O)C=Cc2ccc(OC)cc2OC)ccc1OCCOC | 146 to 148
CC(=O)OCc1c(S(C)(=O)=O)ccc(C(=O)O)c1Cl | 219 to 223
CCOc1nc(O)ns1 | 98
CC(c1ccc(-c2ccccc2)c(F)c1)c1csc(NC(=O)C(N)=O)n1 (stereo not given) | 179 to 180
CC(C)(S)CN1C(=O)NC(=O)C1=O | 168 to 170
COc1ccc2c(c1)CN(Cc1c[nH]c3ccccc13)C2 | 178 to 180
CC(=O)Cc1ccc2c(c1)-c1[nH]c3ccc(C(F)(F)F)cc3c1CC(=O)N2 | 295 to 297
COc1cc(OC)c2c(=O)cc(-c3nc4ccccc4[nH]3)oc2c1 | 245 to 246
O=C1c2ccccc2S(=O)(=O)N1C1CCN(Cc2c[nH]c3ccccc23)CC1 | 214 to 215
Cc1cc(C(C)(C)C)cc(C)c1S(F)(F)F | 59.1
Cc1c(C(=O)O)cnn1-c1ccc([N+](=O)[O-])cc1 | 202
Cc1cc(C)c2cccc(OCc3c(Cl)ccc(S(=O)(=O)N4CCC[C@H]4C(=O)NCCCN(C)C(=O)OC(C)(C)C)c3Cl)c2n1 | 80
COc1cc(C=CC(=O)CC(C)=O)ccc1O | 146 to 147
N#Cc1cc(F)ccc1Oc1cccc(C(F)(F)F)c1 | 51
O=Cc1c(Cl)nc2ccccc2c1-c1ccc(F)cc1 | 168 to 170
OCc1cccc(-c2ccc3nnn(Cc4ccc5ncccc5c4)c3n2)c1 | 191 to 193
O=c1[nH]c2cc(Cl)ccc2c(=O)cc1NCc1ccccc1 | 309 to 314
C/C=C/CNc1cccc(-c2ccnc3c(C(=O)c4cccs4)cnn23)c1 | 110 to 113
CCCCNC(=O)OCC(=NNC(N)=S)c1ccccc1 | 103 to 116

SMILES | melting point [°C]
CCCCN1CCC(CNC(=O)c2ccc(N)n3cc(CC)nc23)CC1 | 139 to 145
CCCCN(Cc1ccc(-c2ccccc2-c2nc(=O)o[nH]2)cc1)c1ncncc1C(=O)OCC | 65 to 69
CCOC(=O)c1ncn2c1CN(C)C(=S)c1cc(F)ccc1-2 | 157 to 159
CS(=O)(=O)c1ccc(C(=O)C2C(=O)CCCC2=O)c(Cl)c1C1=NOC2OCCC12 (stereo not given) | 119
CCOc1ccc(Nc2ncccc2NS(=O)(=O)c2ccc(OC)cc2)cc1 | 144 to 146
CC(C)(C)C(=O)Nc1ccc(Cl)cc1C(=O)C[C@H]1C(=O)OCN1C(=O)OCc1ccccc1 | 113 to 116
COC(=O)COc1cc(C)ccc1C=O | 63 to 64
O=[S@@]1CCC(c2ccccc2)(c2ccccc2)[C@@H]2CNC[C@@H]21 (racemic) | 192
FC(F)(F)Oc1ccc(Nc2cc(N3CCCC3)cc(-c3ccccc3)n2)cc1 | 141 to 143
Clc1cccc2c(CN3CC=C(CCc4ccccc4)CC3)n[nH]c12 | 171 to 172
N#Cc1c(Cl)cc(OCc2ccncc2)cc1OC(C(=O)O)c1ccccc1Cl (racemic) | 165 to 167
OCc1cncn1C1CCCCC1 | 133 to 134
CC(C)(C)c1ccc(CC2CCN(C(=O)C(=O)Nc3ccc4[nH]c(=O)oc4c3)CC2)cc1 | 168
O=C(O)CCc1cn(Cc2ccc(OCc3ccsc3)cc2)cc1-c1ccccc1 | 118 to 119
CC(=O)c1cccc(N2C(=O)CCSC2=S)c1 | 197 to 199
CCn1cccc1C(=O)O | 77 to 78
Cc1cc([N+](=O)[O-])ccc1N=C1C2CC3CC(C2)CC(C3)N1C1CCCC1 | 149 to 152
CC1(C)Oc2ccc(C#N)cc2C(NC(=O)Nc2ccc3c(c2)CCC3)C1O (stereo not given) | 235 to 237
CC(C)(C)C(=O)c1c[nH]c2ncc(-c3ccc(C(=O)NC4CCCC4)s3)nc12 | > 300
Cc1ccc(-c2coc3cc(O)c(O)cc3c2=O)cc1 | 280
